Assay results from patent US6977272B2, “Method for antagonizing inhibition effects of alcohol on cell adhesion” (President and Fellows of Harvard College, priority 2002, dated 2005).
Values joined by “and” are separate entries in the source; they are usually repeats but may differ in a detail not shown here. Equal values may be shown once. Read-outs that look alike come from different tables or passages of the source. Blank lines part the entries; values can stand above or below the compound they belong to.

Experiments:
[1] = molecular target: T1, L1-mediated cell-cell adhesion in human L1-transfected NIH/3T3 cells (2B2-L1, 2A2-L1) (Homo sapiens, UniProt P32004); assay: Cell aggregation (cell-cell adhesion) assay in ethanol-sensitive, human L1-transfected NIH/3T3 cells; type: cell-based; design: antagonist at the aqueous concentration (μM); Antagonist Activity Butanol % ± SEM; 1-alc; effect of increasing concentrations of 1-butanol on the antagonist activity (in words): dose or concentration left out as unconfirmed; conditions: for effect of increasing concentrations of 1-butanol on the antagonist activity (in words): 2 to […] mM 1-butanol, single antagonist concentration (FIG. 5A, 5B); for agonist or antagonist activity (in words): at the ECEQ and at 10 times the ECEQ; for antagonist effect at higher concentrations (in words): 2 μM to 10 μM; for antagonist activity against ethanol (in words): test concentrations of FIG. 3 / Table 1; for IC50: read-out: IC50 concentration (antagonist, used in FIG. 5A)
T1 sequence (P32004 whole entry): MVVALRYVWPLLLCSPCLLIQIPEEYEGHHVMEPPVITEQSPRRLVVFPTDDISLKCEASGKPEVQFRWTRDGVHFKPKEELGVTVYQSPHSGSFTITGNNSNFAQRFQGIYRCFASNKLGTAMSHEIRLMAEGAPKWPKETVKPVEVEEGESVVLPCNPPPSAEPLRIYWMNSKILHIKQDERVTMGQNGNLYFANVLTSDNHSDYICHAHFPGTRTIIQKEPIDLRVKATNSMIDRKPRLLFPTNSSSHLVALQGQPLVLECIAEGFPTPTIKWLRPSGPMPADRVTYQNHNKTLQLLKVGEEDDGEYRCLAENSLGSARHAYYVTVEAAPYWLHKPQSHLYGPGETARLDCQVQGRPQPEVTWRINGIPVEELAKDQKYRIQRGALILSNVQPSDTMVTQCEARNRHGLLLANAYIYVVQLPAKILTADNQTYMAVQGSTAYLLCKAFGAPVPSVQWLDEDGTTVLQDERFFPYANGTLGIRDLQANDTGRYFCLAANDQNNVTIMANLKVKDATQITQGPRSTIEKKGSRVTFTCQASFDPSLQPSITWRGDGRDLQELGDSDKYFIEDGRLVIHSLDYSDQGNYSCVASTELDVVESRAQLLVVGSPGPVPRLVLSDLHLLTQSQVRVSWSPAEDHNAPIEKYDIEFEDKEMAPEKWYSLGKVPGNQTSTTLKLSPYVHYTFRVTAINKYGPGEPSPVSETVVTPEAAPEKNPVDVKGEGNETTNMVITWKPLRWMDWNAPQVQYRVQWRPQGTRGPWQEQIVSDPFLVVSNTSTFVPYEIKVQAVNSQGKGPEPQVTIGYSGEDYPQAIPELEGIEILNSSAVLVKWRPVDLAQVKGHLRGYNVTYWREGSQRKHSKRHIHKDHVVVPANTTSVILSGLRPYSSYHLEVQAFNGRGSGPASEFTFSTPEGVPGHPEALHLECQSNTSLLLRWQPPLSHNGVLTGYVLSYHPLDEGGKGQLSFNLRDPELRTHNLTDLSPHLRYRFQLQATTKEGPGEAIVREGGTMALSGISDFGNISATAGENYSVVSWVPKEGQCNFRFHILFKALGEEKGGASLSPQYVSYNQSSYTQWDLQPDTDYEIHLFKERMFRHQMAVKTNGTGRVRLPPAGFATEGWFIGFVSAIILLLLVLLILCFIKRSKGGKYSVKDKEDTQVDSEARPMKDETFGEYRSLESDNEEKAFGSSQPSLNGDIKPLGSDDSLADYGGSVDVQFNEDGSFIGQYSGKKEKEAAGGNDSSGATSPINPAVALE
Protocol: (§1) NIH/3T3 cells were cultured at 37° C. in Dulbecco's […] Eagle medium (DMEM) (Invitrogen, Carlsbad, Calif.) supplemented with 10% normal calf serum (Intergen, Purchase, N.Y.) and 400 μg/ml G418 (Life Technologies), in an atmosphere of 90% air and 10% CO2. Three subclones were utilized in these studies: 2B2-L1, 2A2-L1 and Vec-1A5.
Cell adhesion assays were performed in the absence and presence of the compounds, listed below in Table 1. […] The aqueous concentration of each antagonist was calculated to produce membrane concentrations equivalent to 100 mM ethanol. Membrane/buffer partition coefficients (Pm/b) were obtained or calculated from published octanol/water partition coefficients.
(§2) Cells were detached by gentle agitation in calcium-free and magnesium-free PBS supplemented with 0.1 mg/ml. DNase, mechanically dissociated to obtain a single-cell suspension, and diluted to 350,000 cells/ml. One ml of the cell suspension was added per well (4.5 cm^2) to a 12-well plate. Agonists and test antagonists were added simultaneously, plates were sealed with parafilm to prevent evaporation, and the cells were gently shaken for 30 minutes at room temperature or on ice. Cells were viewed at a final magnification of 200× and each well was scored for single and adherent cells in five to six microscopic fields of view. Approximately 100 cells per field of view and 600 cells per well were counted. The percent of adherent cells was calculated for each microscopic field of view and then averaged for each well.
Agonists and antagonists were initially tested at aqueous concentrations that were calculated to produce molar membrane concentrations (˜10 mM) equivalent to those produced by an aqueous concentration of 100 mM ethanol (ECEQ).
L1-mediated cell-cell adhesion was defined as the difference in percent of adherent cells between an L1-transfected cell line (2B2-L1 or 2A2-L1) and a vector-transfected cell line (Vec-1A5).
Agonists include compounds that inhibit L1-mediated cell-cell adhesion.

[2] = obtained from a published source or calculated from published octanol/water partition coefficients (divided by five); cited from earlier work
[3] = tested on: NIH/3T3 cells transfected with an empty vector (Vec-1A5); assay: Aggregation assay on NIH/3T3 cells transfected with an empty vector (non-L1 component of cell adhesion); type: cell-based, murine; conditions: four independent assays, each compound at the concentration given in the source, control 15±1
Protocol: as §1, §2
Each candidate antagonist was tested at a single aqueous concentration that was calculated to produce a molar membrane concentration equivalent to that produced by a buffer solution of 100 mM ethanol (ECEQ).

[4] = Membrane/buffer partition coefficient (Pm/b); type: physicochemical; conditions: from Pm/b of Table 1
Protocol: Cell adhesion assays were performed in the absence and presence of the compounds, listed below in Table 1. […] Membrane/buffer partition coefficients (Pm/b) were obtained or calculated from published octanol/water partition coefficients. The compounds are sorted by decreasing membrane/buffer partition coefficients.
Calculations were based on membrane-buffer partition coefficients (Pm/b), which were obtained from a published source (McCreery and Hunt, 1978) or were derived by dividing the octanol/water partition coefficient by five.

[5] = molecular target: T1, L1-mediated cell-cell adhesion in human L1-transfected NIH/3T3 cells (2B2-L1, 2A2-L1); design: antagonist at the aqueous concentration (μM); Antagonist Activity Butanol % ± SEM; 1-alc; conditions: 3-buten-1-ol alone (Wilkemeyer et al., 2000); cited from earlier work
[6] = EC50 membrane (based on calculated membrane concentrations, expressed relative to 1-pentanol), against 100 mM ethanol, calculated from the Pm/b (FIG. 3)
[7] = against 2 mM butanol, linear regression of concentration-response curves (FIG. 4), read-out: aqueous concentration that produced half maximal effect (antagonism)
[8] = approximate EC50 (against 2 mM 1-butanol), antagonist concentration used in FIG. 5B
[9] = against 2 mM butanol, not adjusted for membrane concentration

Compound: CC(C)c1cccc(C(C)C)c1O [2,6-di-isopropyl phenol, 2,6-di-isopropylphenol, reference compound]
P(m/b) membrane/buffer partition coefficient [2]: 1233

Compound: CCCC(C)O (stereo not shown) [2-pentanol]
effect of increasing concentrations of 1-butanol on the antagonist activity (in words) [1]: did not eliminate the antagonist activity
P(m/b) membrane/buffer partition coefficient [2]: 4.38

Compound: 1-butanol [reference compound]
percent of the maximal agonist response ([1]; 2 mM 1-butanol (FIG. 5A)): approximately 90%
mean percent inhibition of cell adhesion ([1]; 2 mM 1-butanol alone, n=11): 60±5%
mean±S.E.M. percent cell adhesion [3]: 13±2%

Compound: CCCCCCCCCCCCO [1-dodecanol]
EC50 [1, 6]: 140 µM and 28 µM
P(m/b) membrane/buffer partition coefficient [2]: 26979

Compound: CCCCCCCCCCCCCCCO [1-pentadecanol]
antagonist effect at higher concentrations (in words) [1]: inactive
antagonist activity against ethanol (in words) ([1]; against 100 mM ethanol): completely inactive
antagonist activity against ethanol (in words) ([1]; against 100 mM ethanol, listed as 1-Pentadecanol): no antagonist activity
agonist or antagonist activity (in words) [1]: neither agonists nor antagonists
P(m/b) membrane/buffer partition coefficient [2]: 347560

Compound: CCCCCCO [1-hexanol]
EC50 [1, 7]: 80 µM

Compound: CCCCCCCCO [1-octanol]
EC50 [1]: 3 µM
EC50 [1, 6]: 98 µM
antagonist potency relative to 1-pentanol ([1]; FIG. 3 and Wilkemeyer et al., 2000): two hundred-fold more potent
EC50 [1, 8]: ~5 µM
IC50 [1]: 5 µM
lipid solubility relative to 1-pentanol [4]: thirty-seven-fold more lipid soluble
mean±S.E.M. percent cell adhesion [3]: 12±1%
P(m/b) membrane/buffer partition coefficient [2]: 189

Compound: CCCCCO [1-pentanol]
EC50 [1]: 540 µM
effect of increasing concentrations of 1-butanol on the antagonist activity (in words) [1]: did not eliminate the antagonist activity
EC50 [1, 6]: 540 µM
EC50 [1, 7]: 223 µM
EC50 [1, 8]: ~700 µM
mean±S.E.M. percent cell adhesion [3]: 16±2%
P(m/b) membrane/buffer partition coefficient [2]: 5.02

Compound: CCCC(C)(C)O [2-methyl-2-pentanol]
effect of increasing concentrations of 1-butanol on the antagonist activity (in words) [1]: did not eliminate the antagonist activity
P(m/b) membrane/buffer partition coefficient [2]: 5.2

Compound: CCCCCCCO [1-heptanol]
P(m/b) membrane/buffer partition coefficient [2]: 51.4

More lines, main results first:

effect of increasing concentrations of 1-butanol on the antagonist activity (in words) [1]: eliminated the antagonist activity
Compound: OCc1ccccc1 [benzyl alcohol]
P(m/b) membrane/buffer partition coefficient [2]: 2.52

agonist or antagonist activity (in words) [1]: neither agonists nor antagonists
Compound: CC(O)C1CC1 (stereo not shown) [cyclopropylethanol]
P(m/b) membrane/buffer partition coefficient [2]: 0.83

inhibition of L1-mediated cell adhesion (in words) ([1]; 120 mM (1%) DMSO): did not inhibit
agonist or antagonist activity (in words) [1]: neither agonists nor antagonists
Compound: C[S+](C)[O-] [dimethyl sulfoxide, reference compound]
mean±S.E.M. percent cell adhesion [3]: 13±0%
P(m/b) membrane/buffer partition coefficient [2]: 0.012

antagonist effect at higher concentrations (in words) [1]: inactive
antagonist activity against ethanol (in words) ([1]; against 100 mM ethanol): only minimal antagonist activity
agonist or antagonist activity (in words) [1]: neither agonists nor antagonists
Compound: CCCCCCCCCCCCCCO [1-tetradecanol]
P(m/b) membrane/buffer partition coefficient [2]: 112468

EC50 [1]: 0.25 µM
EC50 [1, 6]: 1620 µM
fold less potent antagonist than C12 (1-dodecanol) ([1]; against 100 mM ethanol (FIG. 3)): approximately 25 fold
Compound: CCCCCCCCCCCCCO [1-tridecanol]
P(m/b) membrane/buffer partition coefficient [2]: 36394

percent inhibition of cell adhesion ([1]; 15 mM 2-buten-1-ol alone, n=10): 34±4%
percent inhibition of cell adhesion ([1]; 15 mM 2-buten-1-ol plus 2 mM 1-butanol, n=11): 35+6%
antagonism of the actions of 1-butanol and ethanol (in words) ([1]; 15 mM (ECEQ) 2-buten-1-ol): partially antagonized
inhibition of L1-mediated cell-cell adhesion (in words) ([1]; 15 mM (ECEQ) 2-buten-1-ol): partially inhibited
antagonism of the actions of 1-butanol or ethanol (in words) ([1]; 150 mM 2-buten-1-ol): neither antagonized nor augmented
inhibition of L1-mediated cell-cell adhesion (in words) ([1]; 150 mM 2-buten-1-ol): maximally inhibited
Compound: CC=CCO [2-buten-1-ol]

antagonist activity (in words) ([1]; 11 mM (ECEQ) 2-butanol): no antagonist activity
percent inhibition of L1-mediated cell-cell adhesion ([1]; 11 mM (ECEQ) 2-butanol alone, n=6): 63±9%
Compound: CCC(C)O (stereo not shown) [2-butanol]

effect of increasing concentrations of 1-butanol on the antagonist activity (in words) [1]: eliminated the antagonist activity
Compound: OC1CCCC1 [cyclopentanol]
P(m/b) membrane/buffer partition coefficient [2]: 2.24

EC50 [1]: 0.03 µM
EC50 [1, 6]: 20 µM
Compound: CCCCCCCCCCCO [1-undecanol]
P(m/b) membrane/buffer partition coefficient [2]: 3810

EC50 [1, 7]: 32 µM
ratio of half-maximal aqueous concentrations versus 1-hexanol [1, 9]: approximately 2.5 times
ratio of half-maximal aqueous concentrations versus 1-pentanol [1, 9]: approximately 7 fold
EC50 [1, 8]: ~40 µM
Compound: CC(C)CCCO [4-methyl-1-pentanol]
effect of increasing concentrations of 1-butanol on the antagonist activity (in words) [1]: did not eliminate the antagonist activity
mean±S.E.M. percent cell adhesion [3]: 15±3%
P(m/b) membrane/buffer partition coefficient [2]: 9.36

IC50 ([1]; antagonism of 1-butanol inhibition of cell-cell adhesion): 3000 µM
EC50 ([1]; read-out: approximate EC50 (against 2 mM 1-butanol), antagonist concentration used in FIG. 5B): ~3000 µM
Compound: C=CCCO [3-buten-1-ol]
effect on L1-mediated cell-cell adhesion, compound alone (in words) [5]: no effect
mean±S.E.M. percent cell adhesion [3]: 14±0%
P(m/b) membrane/buffer partition coefficient [2]: 1

effect of increasing concentrations of 1-butanol on the antagonist activity (in words) [1]: eliminated the antagonist activity
Compound: CCC(O)CC [3-pentanol]
P(m/b) membrane/buffer partition coefficient [2]: 4.69

inhibition at 100000 µM ([1]; NIH3T3, read-out: percent inhibition of L1-mediated cell-cell adhesion): 62 ± 7%
Compound: CCO [ethanol, reference compound]
